Data as given in US8816047B2 (Cure DM Group Holdings, LLC, priority 2007, dated 2014).
Entries after “also recorded” stand apart in the source; their conditions may differ. Read-outs that look alike come from different tables or passages of the source. One block for each molecule: values may come before it. Where a SMILES comes first, the peptide text is derived from it. Bridges are numbered along the chain shown (N, C = ends). Roman numbers before positions name the chains, in order. Where no end group is shown, it is not given here.

Tests used:
human plasma = settings: 37° C., up to 60 minutes
[1] = In vitro stability of peptides to proteases in human plasma at 37 C (HPLC/LC-MS); type: in vitro ADME; settings: for stability to plasma proteases: 1 hr
Description: The peptides were incubated in human plasma, at 37° C. Sample incubations were performed over a period of 1 hr. Individual time points of 1, 5, 10, 30, and 60 minutes were used to follow the reactions. Deactivation of plasma proteases at each time point was achieved by heating the samples at 100° C. for 1 min. Following work-up the plasma treated samples were evaluated by reverse phase chromatography in series with at mass spectrometer, HPLC/LC-MS, against control samples.
Plasma Treated with HIP and Optimized HIP peptides were evaluated over 1, 5, 10, 30 and 60 minutes. For each time point 0.70 ml of plasma was pipetted into a 10 ml test tube. To each was added 0.30 ml of a stock solution of HIP or Optimized HIP peptide (1.66 mg/ml) prepared in phosphate buffered saline. The plasma/peptide samples were incubated at 37° C. for each time point followed by heating at 100° C. to inactivate the proteolytic activity of plasma proteases. Following inactivation, the samples were diluted with 1 ml of H2O, centrifuged and the supernatant liquid removed for analysis.
Samples were analyzed on a C-18 reverse phase column (50 mm×2.0 mm) using 0.07% TFA in H2O as buffer A and 0.07% TFA in acetonitrile as buffer B. A linear gradient of 98% A/2% B progressing to 30% A/70% B over 10 min. was used at a flow rate of 0.4 ml/min. Eluant was monitored by UV at a wavelength of 220 nm and by mass spectroscopy. Comparisons of chromatographic profiles of plasma treated peptides (37° C.) against peptide reference samples and plasma controls were used to determine the relative stability of peptide to plasma treatment.
T=0: Plasma (0.7 ml) plus peptide stock solution (0.3 ml), heat 100° C. 1 min. add 1 ml H2O, centrifuge.
Plasma background control: 0.7 ml plasma plus PBS (0.3 ml), heat 100° C. 1 min, add 1 ml H2O, centrifuge.
Peptide reference heat treated: Peptide stock solution (0.3 ml) plus 0.7 ml PBS, heat 100° C. 1 min., add 1 ml H2O.
Peptide reference no heat: Peptide stock solution (0.3 ml) add 0.7 ml PBS plus 1 ml H2O.

diabetic mice = assay: Streptozocin diabetic mouse model, 28 days twice-daily IP dosing (Example 2); type: in vivo
Description: In Vivo Studies. HIP3, HIP1 and HIP2 has been the subject of in vivo studies in mice. […] The subject number was selected to yield a sufficient number of diabetic animals for the study and animals were randomly assigned to study groups. All animals were dosed via intraperitoneal injections twice daily (am and pm) for 28 consecutive days. The timing of dose administration remained consistent (±2 hours) during the dosing phase.
Mice were injected intraperitoneally with streptozocin at 40 mg/kg in citrate buffer, pH 4.5, on 5 consecutive days in an attempt to render them diabetic. […] If the blood glucose level in any animal rose to above 400 mg/dL, the animal was treated with insulin. Every 3 days, at the same time each day, a nick was made on the tail and a drop of blood was collected. Glucose measurements were determined using a glucose meter. Group assignments and dose levels were as follows in Table 1:
Study endpoints included the following: changes in glucose; changes in insulin requirements; and histology of post-mortem pancreata.

[2] = HIP2B stability study in distilled water by LC/MS; type: physicochemical; settings: 4-8° C. and 25° C., 1, 2 and 3 weeks
Description: Experimental Procedure. The study was initiated with two groups of eight samples each. One group is maintained at 4-8° C. and the other at 25° C., as part of a 2 month stability study. Each sample contains 4.57 milligrams of HIP2B in 5 micro liters of distilled water. One sample from each temperature group is removed and placed in a minus 20° C. freezer, for storage, every seven days until an LC/MS analysis can be performed. A series of samples were evaluated after 1, 2, and 3 weeks in the stability study against a control sample of HIP2B which had been prepared at the initiation of the study and stored at −20° C. After three weeks of stability testing at each of the temperatures described above, all of the samples were unchanged as determined by LC/MS and therefore deemed stable at 1, 2, and three weeks.

[3] = Pharmacokinetics and absolute bioavailability in Sprague Dawley rats, IV and SC 4 mg/kg (LC/MS MS); type: in vivo, rat; settings: for F: SQ versus IV; for appearance of animals post-dosing: all times post-dosing, each route; for C0: estimated; for plasma levels: intravenous or subcutaneous
Description: The absolute bioavailability and pharmacodynamic study was conducted in Sprague Dawley rats following intravenous and subcutaneous dose administration of HIP2 (FIG. 24), Optimized HIP2B and INGAP. The purpose was to determine the absorption, absolute bioavailability and plasma levels of HIP2, Optimized HIP2B and INGAP in male rats following two different routes of administration.
Six Groups of five male Sprague Dawley rats were administered HIP2, HIP2B or INGAP by intravenous and subcutaneous routes as follows in table below.
Ten serial blood plasma samples (0.03 ml each) were collected from a jugular vein catheter from five animals per group at 5, 10, 15, 30 minutes, 45 minutes followed by samples at 1, 2, 3, 8, and 24 hours post-dose. Plasma was collected into tubes containing EDTA. Following collection, samples were kept chilled on cool packs before centrifugation and transfer to pre-labeled microfuge tubes for storage at −70° C. or below.
Rat plasma samples of 200 μl each were added to a micro centrifuge tube containing 1 ml of acetonitrile (0.07% trifluoroacetic acid, TFA) and stirred with a vortex mixer for 1 min. followed by centrifugation to remove precipitated plasma proteins. The supernatant solution was removed and evaporated, using a Speed Vac, to dryness. To the micro centrifuge tube containing the dry pellet was added 200 μl of 20:80 acetonitrile:water (containing 0.07% TFA). The sample was centrifuged to remove any insoluble material and the supernatant solution transferred to analytical vials for LC/MS MS analysis. The mass spectrometer was calibrated to detect the most abundant daughter ion/ions observed for each of the respective reference samples of HIP2B (M=286.0), HIP2 (M=287.1) and INGAP (M=212.2, 356.1, 373.9). Optimized HIP2B, HIP2 and INGAP plasma samples were analyzed on a C-18 reverse phase column (50 mm×2.0 mm, Varian Pursuit XRS3) using 0.07% TFA in H2O as buffer A and 0.07% TFA in acetonitrile as buffer B. A linear gradient of 98% A/2% B progressing to 100% B over 9 minutes was used at a flow rate of 0.4 ml/min.
The following plasma controls were treated as described above and used to establish a standard concentration curve: • 1. Blank plasma as a background control • 2. Five standard plasma samples containing 6.7×10^4, 6.7×10^3, 6.7×10^2, […] ng/ml of HIP2B, HIP2 and INGAP

[4] = rat, in vivo, SQ, rat, read-out: AUC(0-∝)
[5] = rat, in vivo, SQ, rat, read-out: T1/2 (converted)
[6] = rat, in vivo, iv, rat, read-out: AUC(0-∝)
[7] = rat, in vivo, iv, rat, read-out: T1/2 (converted)

Molecule: IGLHDPTQGTEPNG
cleaved bond (human plasma): isoleucine-G, major, 1 min; also recorded: L-H, minor

Molecule: (Ac-IGLHDPTQGTEPNGC-NH2)2
not cleaved (human plasma): stable to plasma proteases for at least 1 hr

Molecule: Ac-IGLHDPTQGTEPNG-NH2
not cleaved (human plasma): completely stable to plasma proteases after 1 hr of incubation at 37 °C

Molecule: Ac-IGLHDPTQGTEPNGC(PEG)-NH2
not cleaved (human plasma): stable to plasma proteases for up to 1 hr

stability to plasma proteases ([1]; human plasma 37° C.): completely stable
Molecule: Ac-IGLHDPTQGTEPNGE-NH2 [HIP3B, Ac-Ile-Gly-Leu-His-Asp-Pro-Thr-Gln-Gly-Thr-Glu-Pro-Asn-Gly-Glu-NH2]

Molecule: WIGLHDPTQGTEPNG [HIP1]
lower mean glucose versus control (diabetic mice; 250 μg IP twice daily for 28 days, STZ diabetic mice): 14.7%
differentiation of progenitor cells within the pancreas into new islet structures (diabetic mice; introduced into diabetic mice): stimulate differentiation of progenitor cells within the pancreas into new islet structures

Molecule: Ac-IGLHDPTQGTEPNGE-NH2
not cleaved (human plasma): completely stable up to 1 hr of plasma incubation

Molecule: Ac-Ile-Gly-Leu-His-Asp-Pro-Thr-Gln-Gly-Thr-Glu-Pro-Asn-Gly-Cys(PEG)-NH2 [HIP2B Cys-PEG]
stability to plasma proteases ([1]; human plasma 37° C.): stable to plasma proteases for up to 1 hr

Molecule: CC[C@H](C)[C@H](NC(C)=O)C(=O)NCC(=O)N[C@@H](CC(C)C)C(=O)N[C@@H](Cc1c[nH]cn1)C(=O)N[C@@H](CC(=O)O)C(=O)N1CCC[C@H]1C(=O)N[C@H](C(=O)N[C@@H](CCC(N)=O)C(=O)NCC(=O)N[C@H](C(=O)N[C@@H](CCC(=O)O)C(=O)N1CCC[C@H]1C(=O)N[C@@H](CC(N)=O)C(=O)NCC(=O)N[C@@H](CSSC[C@H](NC(=O)CNC(=O)[C@H](CC(N)=O)NC(=O)[C@@H]1CCCN1C(=O)[C@H](CCC(=O)O)NC(=O)[C@@H](NC(=O)CNC(=O)[C@H](CCC(N)=O)NC(=O)[C@@H](NC(=O)[C@@H]1CCCN1C(=O)[C@H](CC(=O)O)NC(=O)[C@H](Cc1c[nH]cn1)NC(=O)[C@H](CC(C)C)NC(=O)CNC(=O)[C@@H](NC(C)=O)[C@@H](C)CC)[C@@H](C)O)[C@@H](C)O)C(N)=O)C(N)=O)[C@@H](C)O)[C@@H](C)O [HIP2B Cys-Dimer, (Ac-Ile-Gly-Leu-His-Asp-Pro-Thr-Gln-Gly-Thr-Glu-Pro-Asn-Gly-Cys-NH2)2] (I: Ac-IGLHDPTQGTEPNGC-NH2 / II: Ac-IGLHDPTQGTEPNGC-NH2; disulfide I:15-II:15)
stability to plasma proteases ([1]; human plasma 37° C.): stable to plasma proteases for at least 1 hr

stability by LC/MS [2]: unchanged
AUC(0-∝) ([3]; IV, rat): 1614.3 ng·h/mL
C1 h ([3]; IV, rat): 114 ng/mL
F ([3]; rat): 0.87
appearance of animals post-dosing [3]: appeared normal
Cmax ([3]; in vivo, IV, rat): 8240 ng/mL
Tmax ([3]; in vivo, IV, rat): 4.98 min
C0 ([3]; in vivo, IV, rat): 18800 ng/mL
clearance ([3]; in vivo, IV, rat, read-out: apparent mean plasma clearance (converted)): 31.7 mL/min/kg
Vd ([3]; in vivo, IV, rat, read-out: apparent mean volume of distribution): 0.48 L/kg
Tmax ([3]; in vivo, SQ, rat): 10 min
Cmax ([3]; in vivo, SQ, rat, n = 5): 2740 ng/mL
bioavailability ([3]; in vivo, sc, rat, read-out: absolute subcutaneous bioavailability): 87%
CL/F ([3]; in vivo, sc, subcutaneous, rat, read-out: apparent mean Cl/F (converted)): 35 mL/min/kg
time by which concentrations were undetectable ([3]; intravenous, rat): ≤ 45 min
level at 1 h ([3]; male, Sprague Dawley, plasma, sc, SQ, rat, read-out: C1 h): 612 ng/mL
Vd/F ([3]; male, Sprague Dawley, plasma, sc, subcutaneous, rat, read-out: apparent mean V2/F): 1 L/kg
AUC [3, 4]: 1930 ng·h/mL
half-life [3, 5]: 20.4 min
AUC [3, 6]: 2230 ng·h/mL
half-life [3, 7]: 11.4 min
half-life ([3]; rat, in vivo, iv, rat, read-out: terminal phase plasma half-life): 11 min
half-life ([3]; rat, in vivo, sc, subcutaneous, rat, read-out: terminal phase plasma half-life): 20 min
stability to plasma proteases ([1]; human plasma 37° C.): completely stable
stability in vitro in serum ([1]; serum at 37 degrees, relative to HIP 2): significantly more a more stable
Molecule: Ac-IGLHDPTQGTEPNG-NH2 [HIP2B, Ac-Ile-Gly-Leu-His-Asp-Pro-Thr-Gln-Gly-Thr-Glu-Pro-Asn-Gly-NH2]
plasma levels ([3]; rat): significantly higher relative to HIP2 or INGAP

C1 h ([3]; IV, rat): 0 ng/mL
F ([3]; rat): 0.01
C1 h ([3]; SQ, rat): 0 ng/mL
appearance of animals post-dosing [3]: appeared normal
Cmax ([3]; in vivo, IV, rat): 29 ng/mL
Tmax ([3]; in vivo, IV, rat): 4.98 min
C0 ([3]; in vivo, IV, rat): 18800 ng/mL
Tmax ([3]; in vivo, SQ, rat): 4.98 min
Cmax ([3]; in vivo, SQ, rat, n = 5): 32 ng/mL
AUC [3, 4]: 2.7 ng·h/mL
half-life [3, 5]: 1.2 min
AUC [3, 6]: 442 ng·h/mL
half-life [3, 7]: 1.2 min
new component (proteolysis product) ([1]; human plasma 37° C., 1 min): 5%
new component (proteolysis product) ([1]; human plasma 37° C., 30 min): ≈ 50%
new component (proteolysis product) ([1]; human plasma 37° C., 60 min): ≈ 70%
Molecule: IGLHDPTQGTEPNG [HIP2, Ile-Gly-Leu-His-Asp-Pro-Thr-Gln-Gly-Thr-Glu-Pro-Asn-Gly]
plasma levels ([3]; rat): very low levels of HIP2 were observed only at five minutes post dosage; also recorded: Very low levels of HIP2 were detected at 5 minutes; also recorded: observed only at the 5 minute time point

C1 h ([3]; IV, rat): 0 ng/mL
F ([3]; rat): 0.00
C1 h ([3]; SQ, rat): 0 ng/mL
appearance of animals post-dosing [3]: appeared normal
C0 ([3]; male, Sprague-Dawley, plasma, IV, rat): 18800 ng/mL
AUC ([3]; male, Sprague-Dawley, rat, plasma, iv, rat, footnote *extrapolated, read-out: AUC(0-∝), extrapolated): 440 ng·h/mL
half-life ([3]; male, Sprague-Dawley, rat, plasma, iv, rat, read-out: T1/2 (converted)): < 1.5 min
half-life ([3]; male, Sprague-Dawley, rat, plasma, subcutaneous, SQ, rat, read-out: T1/2 (converted)): < 1.5 min
Molecule: IGLHDPSHGTLPNGS [INGAP, Ile-Gly-Leu-His-Asp-Pro-Ser-His-Gly-Thr-Leu-Pro-Asn-Gly-Ser, reference compound]
plasma levels ([3]; rat): below the lower limit of quantitation; also recorded: undetectable at any time point

remaining at 1 h, 0.498 mg/ml ([1]; human plasma 37° C., after 60 min, read-out: starting concentration of peptide remaining): ~50%
Molecule: IGLHDPTQGTEPNGE [HIP3, Ile-Gly-Leu-His-Asp-Pro-Thr-Gln-Gly-Thr-Glu-Pro-Asn-Gly-Glu]
